# Test results taken from patent US20220160734A1, “TREATMENT OF FIBROIDS WITH VITAMIN D AND AN AGENT SUCH AS EPIGALLOCATECHIN GALLATE (EGCG)” (LO.LI. PHARMA S.R.L., priority 2019, published 2022).
# Legend:
# [1] = tested on: fibronectin release in cultured fibroblasts; assay: Fibronectin release in TGF-β1-stimulated fibroblasts, western blot; format: cell-based, human; conditions: Phase I; 18 days culture, 24 h TGF-β1 10 ng/ml, then 24 h treatment; vitamin D3 0.005 μg/ml, EGCG 0.03 mg/ml; FIG. 1
# Excerpt: Anti-fibrotic properties of epigallocatechin gallate (EGCG) and vitamin D3 (alone or in combination) have been preliminary tested in human normal fibroblasts in 2D cultures. Human normal fibroblasts used in this experiment are Primary cell cultures. To discard any effect on fibroblast viability, proliferation and apoptosis were also investigated. Fibroblasts culture: DMEM, 10% FBS, 1% L-Glu, 1% Pen/strep for 18 days; Fibroblasts were allowed to grow in the above fibroblast culture for 18 days until reaching 50% confluence. Then, the fibrotic process was fostered by adding 10 ng/ml TGF-β1 (Peprotech, cat no. #100-21-10UG). […]
# (§1) Fibronectin and collagen release were both measured in western blot for assessing the anti-fibrotic effect. […]
# (§2) Fibronectin and collagen release from fibroblasts were analyzed at 24 hours after addition of EGCG or vitamin D3 in previously stimulated fibroblast, as described above. […]
# Data are reported in FIGS. 3 A-B and 4 A-B and expressed as fold-decrease of OD-Units in respect to the control value, which was obtained for fibroblasts after 24 hours of stimulation with TGF-β1 (e.g. a decrease of 50% between two measurements would be referred to a “half-fold change”). Fold change is a measure describing how much a quantity changes between an original and a subsequent measurement. […]
# [2] = tested on: collagen release in cultured fibroblasts; assay: Collagen release in TGF-β1-stimulated fibroblasts, western blot; format: cell-based, human; conditions: Phase I, 18 days culture, 24 h TGF-β1 10 ng/ml, then 24 h treatment, vitamin D3 0.005 μg/ml, EGCG 0.03 mg/ml, FIG. 2
# Excerpt: (§3) Anti-fibrotic properties of epigallocatechin gallate (EGCG) and vitamin D3 (alone or in combination) have been preliminary tested in human normal fibroblasts in 2D cultures. Human normal fibroblasts used in this experiment are Primary cell cultures. To discard any effect on fibroblast viability, proliferation and apoptosis were also investigated. Fibroblasts culture: DMEM, 10% FBS, 1% L-Glu, 1% Pen/strep for 18 days; Fibroblasts were allowed to grow in the above fibroblast culture for 18 days until reaching 50% confluence. Then, the fibrotic process was fostered by adding 10 ng/ml TGF-β1 (Peprotech, cat no. #100-21-10UG). 24 hours after addition of TGF-β1, fibroblasts were thoroughly washed with PBS, fresh fibroblast culture medium and the below formulas were added. Fibroblasts were then allowed to grow for an additional 24 hours.
# Vitamin D3 (cholecalciferol, CAS-No. 67-97-0): 0.005 μg/ml in DMSO. Vitamin D3 was dissolved in DMSO and after that further dilutions were made in PBS. Essentially, the cells receive the same “dose” of DMSO, this allows a clean comparison of the test. In this case, DMSO 1:10000 was used;
# EGCG (GREEN TEA DRY EXTRACT 95% POLYPHENOLS; CAS-No. 84650-60-2): 0.03 mg/ml in H2O;
# combined treatment: EGCG 0.03 mg/ml+vitamin D3 0.005 μg/ml;
# control: vehicle only (DMSO);
# as §1, §2
# Data are reported in FIGS. 3 A-B and 4 A-B and expressed as fold-decrease of OD-Units in respect to the control value, which was obtained for fibroblasts after 24 hours of stimulation with TGF-β1 (e.g. a decrease of 50% between two measurements would be referred to a “half-fold change”). Fold change is a measure describing how much a quantity changes between an original and a subsequent measurement. It is defined as the ratio between the two quantities; for quantities A and B, then the fold change of B with respect to A is B/A.
# human normal fibroblasts = assay: Fibroblast proliferation, viability and morphology; conditions: Phase I; vitamin D3 0.005 μg/ml, EGCG 0.03 mg/ml; data not shown
# Excerpt: as §3
# [3] = tested on: human uterine fibroid cells; conditions: in vitro; cited from earlier work
# uterine fibroids [4] = conditions: animal models; cited from earlier work
# uterine fibroids [5] = conditions: women with uterine fibroids after treatment with EGCG; cited from earlier work
# uterine fibroid tumors = conditions: mice; cited from earlier work
SMILES,fibronectin release (production) [1],collagen release (production) [2],collagen release (production) ([2]; listed as Vitamin D),fibroblasts proliferation rate (human normal fibroblasts),fibroblasts viability (human normal fibroblasts),uterine fibroid cell proliferation [3],size of uterine fibroids / uterine fibroid tumor growth (uterine fibroids [4]),reduction in the total fibroid volume (uterine fibroids [5]) [%],apoptosis in human uterine fibroid cells [3],volume of uterine fibroid tumors (uterine fibroid tumors)
"C=C1CC[C@H](O)C/C1=C/C=C1\CCC[C@]2(C)[C@@H]([C@H](C)CCCC(C)C)CC[C@@H]12 [Vitamin D3, cholecalciferol]",slightly increases,significantly reducing,reduces,does not significantly modify,does not significantly modify,reduces,reduces,–,–,–
"O=C(O[C@@H]1Cc2c(O)cc(O)cc2O[C@@H]1c1cc(O)c(O)c(O)c1)c1cc(O)c(O)c(O)c1 [EGCG, epigallocatechin gallate]",significantly reduces,significantly reduces,–,does not significantly modify,does not significantly modify,inhibits proliferation,–,32.6,induces apoptosis,reduces the volume
"C=C1/C(=C\C=C2/CCC[C@]3(C)[C@@H]([C@H](C)CCCC(C)(C)O)CC[C@@H]23)C[C@@H](O)C[C@@H]1O [1,25-dihydroxyvitamin D]",–,–,–,–,–,inhibits,decreases the size,–,–,–
